In BindingDB's records for doi:10.1021/acs.jmedchem.8b00082 (Abbvie, 2018):

Key:
[1] = Inhibition of HCV genotype 1b Con1 NS5A expressed in HuH7 cell infected HCV genotype 6a assessed as decrease in viral replication after 3 days by luciferase reporter gene assay
[2] = Inhibition of NS5A in HuH7 cell infected HCV genotype 1a H77 assessed as decrease in viral replication after 3 days by luciferase reporter gene assay
[3] = Inhibition of HCV genotype 1b Con1 NS5A expressed in HuH7 cell infected HCV genotype 2a assessed as decrease in viral replication after 3 days by luciferase reporter gene assay
[4] = Inhibition of NS5A in HuH7 cell infected HCV genotype 1a H77 assessed as decrease in viral replication after 3 days in presence of 40% human plasma by luciferase reporter gene assay
[5] = Inhibition of HCV genotype 1b Con1 NS5A expressed in HuH7 cell infected HCV genotype 2b assessed as decrease in viral replication after 3 days by luciferase reporter gene assay
[6] = Inhibition of NS5A in HuH7 cell infected HCV genotype 1b Con1 assessed as decrease in viral replication after 3 days by luciferase reporter gene assay
[7] = Inhibition of HCV genotype 1b Con1 NS5A expressed in HuH7 cell infected HCV genotype 4a assessed as decrease in viral replication after 3 days by luciferase reporter gene assay
[8] = Inhibition of HCV genotype 1b Con1 NS5A expressed in HuH7 cell infected HCV genotype 3a assessed as decrease in viral replication after 3 days by luciferase reporter gene assay
[9] = Inhibition of NS5A in HuH7 cell infected HCV genotype 1b Con1 assessed as decrease in viral replication after 3 days in presence of 40% human plasma by luciferase reporter gene assay
[10] = Inhibition of HCV genotype 1b Con1 NS5A expressed in HuH7 cell infected HCV genotype 5a assessed as decrease in viral replication after 3 days by luciferase reporter gene assay

Work on `COC(=O)N[C@H](C(=O)N1CCC[C@H]1c1nc2ccc([C@H]3CC[C@H](c4ccc5nc([C@@H]6CCCN6C(=O)[C@@H](NC(=O)OC)C(C)C)[nH]c5c4)N3c3ccc(N4CCC(c5ccccc5)CC4)cc3)cc2[nH]1)C(C)C` yielded an EC50 [1] of 402 pM, an EC50 [2] of 324 pM and an EC50 [3] of 468 pM. The EC50 [4] was 1510 pM, the EC50 [5] was 452 pM and the EC50 [6] was 325 pM. For the same molecule, the EC50 [7] was 243 pM, the EC50 [8] was 481 pM and the EC50 [9] was 1510 pM.
With `COC(=O)N[C@H](C(=O)N1CCC[C@H]1c1nc2cc(F)c([C@H]3CC[C@H](c4cc5[nH]c([C@@H]6CCCN6C(=O)[C@@H](NC(=O)OC)C(C)C)nc5cc4F)N3c3cc(F)c(N4CCC(c5ccc(F)cc5)CC4)c(F)c3)cc2[nH]1)C(C)C` the EC50 [1] was 3 pM, the EC50 [2] was 1 pM and the EC50 [3] was 3 pM. For the same molecule, the EC50 [4] was 70 pM, the EC50 [5] was 2 pM and the EC50 [6] was 3 pM. The EC50 [7] was 1 pM, the EC50 [8] was 1 pM and the EC50 [9] was 172 pM. The EC50 [10] was 1 pM.
For `COC(=O)N[C@H](C(=O)N1CCC[C@H]1c1nc2cc([C@H]3CC[C@H](c4ccc5[nH]c([C@@H]6CCCN6C(=O)[C@@H](NC(=O)OC)C(C)C)nc5c4)N3c3cc(F)c(N4CCCCC4)c(F)c3)ccc2[nH]1)C(C)C`, the EC50 [1] was 7 pM, the EC50 [2] was 5 pM and the EC50 [3] was 13 pM. The EC50 [4] was 151 pM, the EC50 [5] was 7 pM and the EC50 [6] was 6 pM. The EC50 [7] was 5 pM, the EC50 [8] was 8 pM and the EC50 [9] was 241 pM.
With `COC(=O)N[C@H](C(=O)N1CCC[C@H]1c1nc2ccc([C@H]3CC[C@H](c4ccc5nc([C@@H]6CCCN6C(=O)[C@@H](NC(=O)OC)C(C)C)[nH]c5c4)N3c3cc(F)c(N4CCC(c5ccccc5)CC4)c(F)c3)cc2[nH]1)C(C)C` the EC50 [1] was 8 pM, the EC50 [2] was 2 pM and the EC50 [3] was 8 pM. For the same molecule, the EC50 [4] was 76 pM, the EC50 [5] was 6 pM and the EC50 [6] was 6 pM. For the same molecule, the EC50 [7] was 4 pM, the EC50 [8] was 6 pM and the EC50 [9] was 183 pM. For the same molecule, the EC50 [10] was 3 pM.
`COC(=O)N[C@H](C(=O)N1CCC[C@H]1c1nc2ccc([C@H]3CC[C@H](c4ccc5nc([C@@H]6CCCN6C(=O)[C@@H](NC(=O)OC)C(C)C)[nH]c5c4)N3c3ccc(Cl)cc3)cc2[nH]1)C(C)C` gave an EC50 [1] of 8 pM, an EC50 [2] of 6 pM and an EC50 [3] of 12 pM. The EC50 [4] was 240 pM, the EC50 [5] was 7 pM and the EC50 [6] was 7 pM. The EC50 [7] was 5 pM, the EC50 [8] was 12 pM and the EC50 [9] was 330 pM.
For `COC(=O)N[C@H](C(=O)N1CCC[C@H]1c1nc2ccc([C@H]3CC[C@H](c4ccc5nc([C@@H]6CCCN6C(=O)[C@@H](NC(=O)OC)C(C)C)[nH]c5c4)N3c3ccc(-c4ccccc4)cc3)cc2[nH]1)C(C)C`, the EC50 [1] was 11 pM, the EC50 [2] was 4 pM and the EC50 [3] was 11 pM. For the same molecule, the EC50 [4] was 75 pM, the EC50 [5] was 9 pM and the EC50 [6] was 3 pM. It also gave an EC50 [7] of 6 pM, an EC50 [8] of 16 pM and an EC50 [9] of 108 pM.
With `COC(=O)N[C@H](C(=O)N1CCC[C@H]1c1nc2cc(F)c([C@H]3CC[C@H](c4cc5[nH]c([C@@H]6CCCN6C(=O)[C@@H](NC(=O)OC)[C@@H](C)OC)nc5cc4F)N3c3cc(F)c(N4CCC(c5ccccc5)CC4)c(F)c3)cc2[nH]1)[C@@H](C)OC` the EC50 [1] was 4 pM, the EC50 [2] was 1 pM and the EC50 [3] was 3 pM. It also gave an EC50 [4] of 43 pM, an EC50 [5] of 3 pM and an EC50 [6] of 3 pM. For the same molecule, the EC50 [7] was 3 pM, the EC50 [8] was 3 pM and the EC50 [9] was 138 pM. For the same molecule, the EC50 [10] was 2 pM.
For `COC(=O)N[C@H](C(=O)N1CCC[C@H]1c1nc2cc(F)c([C@H]3CC[C@H](c4cc5[nH]c([C@@H]6CCCN6C(=O)[C@@H](NC(=O)OC)C6CCOCC6)nc5cc4F)N3c3cc(F)c(N4CCC(c5ccccc5)CC4)c(F)c3)cc2[nH]1)C1CCOCC1`, the EC50 [1] was 12 pM, the EC50 [2] was 4 pM and the EC50 [3] was 9 pM. For the same molecule, the EC50 [4] was 136 pM, the EC50 [5] was 8 pM and the EC50 [6] was 8 pM. The EC50 [7] was 6 pM, the EC50 [8] was 11 pM and the EC50 [9] was 337 pM. It also gave an EC50 [10] of 6 pM.
`COC(=O)N[C@H](C(=O)N1CCC[C@H]1c1nc2ccc([C@H]3CC[C@H](c4ccc5nc([C@@H]6CCCN6C(=O)[C@@H](NC(=O)OC)C(C)C)[nH]c5c4)N3c3cc(Cl)c(N4CCCCC4)c(Cl)c3)cc2[nH]1)C(C)C` showed an EC50 [1] of 10 pM, an EC50 [2] of 5 pM and an EC50 [3] of 44 pM. The EC50 [4] was 213 pM, the EC50 [5] was 5 pM and the EC50 [6] was 3 pM. It also gave an EC50 [7] of 6 pM, an EC50 [8] of 11 pM and an EC50 [9] of 132 pM.
In the case of `COC(=O)N[C@H](C(=O)N1CCC[C@H]1c1nc2cc(F)c([C@H]3CC[C@H](c4cc5[nH]c([C@@H]6CCCN6C(=O)[C@@H](NC(=O)OC)C6CCOCC6)nc5cc4F)N3c3cc(F)c(N4CCC(c5ccc(F)cc5)CC4)c(F)c3)cc2[nH]1)C1CCOCC1`, the EC50 [1] is reported as 8 pM, the EC50 [2] is reported as 3 pM and the EC50 [3] is reported as 8 pM. The EC50 [4] was 220 pM, the EC50 [5] was 8 pM and the EC50 [6] was 7 pM. It also gave an EC50 [7] of 6 pM, an EC50 [8] of 7 pM and an EC50 [9] of 522 pM. The EC50 [10] was 5 pM.
`COC(=O)N[C@H](C(=O)N1CCC[C@H]1c1nc2cc(F)c([C@H]3CC[C@H](c4cc5[nH]c([C@@H]6CCCN6C(=O)[C@@H](NC(=O)OC)C(C)C)nc5cc4F)N3c3cc(F)c(N4CCC(c5ccccc5)CC4)c(F)c3)cc2[nH]1)C(C)C` showed an EC50 [1] of 9 pM, an EC50 [2] of 2 pM and an EC50 [3] of 8 pM. It also gave an EC50 [4] of 58 pM, an EC50 [5] of 3 pM and an EC50 [6] of 6 pM. It also gave an EC50 [7] of 4 pM, an EC50 [8] of 4 pM and an EC50 [9] of 135 pM. For the same molecule, the EC50 [10] was 2 pM.
Work on `COC(=O)N[C@H](C(=O)N1CCC[C@H]1c1nc2ccc([C@H]3CC[C@H](c4ccc5nc([C@@H]6CCCN6C(=O)[C@@H](NC(=O)OC)C(C)C)[nH]c5c4)N3c3cc(F)c(N4CCC(c5ccc(F)cc5)CC4)c(F)c3)cc2[nH]1)C(C)C` yielded an EC50 [1] of 21 pM, an EC50 [2] of 3 pM and an EC50 [3] of 20 pM. The EC50 [4] was 78 pM, the EC50 [5] was 13 pM and the EC50 [6] was 8 pM. It also gave an EC50 [7] of 9 pM, an EC50 [8] of 13 pM and an EC50 [9] of 126 pM.
For `COC(=O)N[C@H](C(=O)N1CCC[C@H]1c1nc2ccc([C@H]3CC[C@H](c4ccc5nc([C@@H]6CCCN6C(=O)[C@@H](NC(=O)OC)C(C)C)[nH]c5c4)N3c3ccc(F)cc3)cc2[nH]1)C(C)C`, the EC50 [1] was 14 pM, the EC50 [2] was 38 pM and the EC50 [3] was 28 pM. The EC50 [4] was 490 pM, the EC50 [5] was 21 pM and the EC50 [6] was 25 pM. For the same molecule, the EC50 [7] was 14 pM, the EC50 [8] was 31 pM and the EC50 [9] was 427 pM.
With `COC(=O)N[C@H](C(=O)N1CCC[C@H]1c1nc2cc([C@H]3CC[C@H](c4cc5nc([C@@H]6CCCN6C(=O)[C@@H](NC(=O)OC)[C@@H](C)OC)[nH]c5cc4F)N3c3cc(F)c(N4CCC(c5ccc(F)cc5)CC4)c(F)c3)c(F)cc2[nH]1)[C@@H](C)OC` [A-1325912.0] the EC50 [1] was 2.8 pM, the EC50 [2] was 1.8 pM and the EC50 [3] was 2.3 pM. The EC50 [4] was 64 pM, the EC50 [5] was 1.9 pM and the EC50 [6] was 4.3 pM. It also gave an EC50 [7] of 1.9 pM, an EC50 [8] of 2.1 pM and an EC50 [9] of 200 pM. The EC50 [10] was 1.4 pM.
Molecule `COC(=O)N[C@H](C(=O)N1CCC[C@H]1C(=O)Nc1ccc([C@@H]2CC[C@@H](c3ccc(NC(=O)[C@@H]4CCCN4C(=O)[C@@H](NC(=O)OC)C(C)C)cc3)N2c2ccc(C(C)(C)C)cc2)cc1)C(C)C` [CHEBI:85183] has an EC50 [1] of 366 pM, an EC50 [2] of 14 pM and an EC50 [3] of 12 pM. For the same molecule, the EC50 [4] was 186 pM, the EC50 [5] was 4.3 pM and the EC50 [6] was 5 pM. For the same molecule, the EC50 [7] was 1.7 pM, the EC50 [8] was 19 pM and the EC50 [9] was 56 pM. For the same molecule, the EC50 [10] was 3.2 pM.
